Assay results published in the NIST ThermoML archive (doi:10.1021/je050020m).
Numbers after ± are expanded uncertainties.

Test: xn = mol fraction of the nth substance listed
Settings: Liquid, Vibrating tube method

CCCCCCCCCC [decane] + O=C=O
Settings | mass density [kg/m3]
323.05 K, 14026 kPa, x2 = 0.0551 | 721.01 ± 0.59
323.05 K, 15008 kPa, x2 = 0.0551 | 721.76 ± 0.6
323.05 K, 16035 kPa, x2 = 0.0551 | 722.62 ± 0.6
323.05 K, 17008 kPa, x2 = 0.0551 | 723.4 ± 0.61
323.05 K, 18019 kPa, x2 = 0.0551 | 724.22 ± 0.61
323.05 K, 18994 kPa, x2 = 0.0551 | 724.89 ± 0.61
323.05 K, 20009 kPa, x2 = 0.0551 | 725.73 ± 0.62
323.05 K, 21010 kPa, x2 = 0.0551 | 726.47 ± 0.62
323.05 K, 21987 kPa, x2 = 0.0551 | 727.22 ± 0.63
323.05 K, 23060 kPa, x2 = 0.0551 | 728.04 ± 0.63
323.05 K, 23980 kPa, x2 = 0.0551 | 728.74 ± 0.64
323.05 K, 25055 kPa, x2 = 0.0551 | 729.61 ± 0.64
323.06 K, 5014 kPa, x2 = 0.2369 | 719.6 ± 0.52
323.06 K, 6022 kPa, x2 = 0.2369 | 720.66 ± 0.52
323.06 K, 7021 kPa, x2 = 0.2369 | 721.73 ± 0.53
323.06 K, 7029 kPa, x2 = 0.4536 | 732.05 ± 0.49
323.06 K, 8017 kPa, x2 = 0.4536 | 733.42 ± 0.49
323.06 K, 8020 kPa, x2 = 0.2369 | 722.8 ± 0.53
323.06 K, 9010 kPa, x2 = 0.2369 | 723.79 ± 0.54
323.06 K, 9018 kPa, x2 = 0.4536 | 734.79 ± 0.56
323.06 K, 10024 kPa, x2 = 0.4536 | 736.13 ± 0.52
323.06 K, 10030 kPa, x2 = 0.2369 | 724.84 ± 0.54
323.06 K, 11018 kPa, x2 = 0.2369 | 725.81 ± 0.54
323.06 K, 11019 kPa, x2 = 0.4536 | 737.41 ± 0.51
323.06 K, 12021 kPa, x2 = 0.2369 | 726.78 ± 0.55
323.06 K, 12025 kPa, x2 = 0.4536 | 738.69 ± 0.51
323.06 K, 13001 kPa, x2 = 0.2369 | 727.75 ± 0.55
323.06 K, 13003 kPa, x2 = 0.4536 | 739.89 ± 0.51
323.06 K, 14021 kPa, x2 = 0.2369 | 728.7 ± 0.56
323.06 K, 14027 kPa, x2 = 0.4536 | 741.16 ± 0.52
323.06 K, 15001 kPa, x2 = 0.4536 | 742.33 ± 0.52
323.06 K, 15014 kPa, x2 = 0.2369 | 729.63 ± 0.56
323.06 K, 16010 kPa, x2 = 0.2369 | 730.54 ± 0.56
323.06 K, 16024 kPa, x2 = 0.4536 | 743.53 ± 0.53
323.06 K, 17006 kPa, x2 = 0.2369 | 731.46 ± 0.57
323.06 K, 17010 kPa, x2 = 0.4536 | 744.68 ± 0.53
323.06 K, 18028 kPa, x2 = 0.2369 | 732.36 ± 0.57
323.06 K, 18030 kPa, x2 = 0.4536 | 745.84 ± 0.53
323.06 K, 19000 kPa, x2 = 0.4536 | 746.93 ± 0.54
323.06 K, 19016 kPa, x2 = 0.2369 | 733.24 ± 0.58
323.06 K, 20015 kPa, x2 = 0.2369 | 734.11 ± 0.58
323.06 K, 20028 kPa, x2 = 0.4536 | 748.09 ± 0.54
323.06 K, 21001 kPa, x2 = 0.4536 | 749.17 ± 0.55
323.06 K, 21027 kPa, x2 = 0.2369 | 735 ± 0.59
323.06 K, 22020 kPa, x2 = 0.4536 | 750.24 ± 0.55
323.06 K, 22023 kPa, x2 = 0.2369 | 735.85 ± 0.59
323.06 K, 23012 kPa, x2 = 0.4536 | 751.33 ± 0.56
323.06 K, 23022 kPa, x2 = 0.2369 | 736.71 ± 0.6
323.06 K, 24006 kPa, x2 = 0.2369 | 737.58 ± 0.6
323.06 K, 24021 kPa, x2 = 0.4536 | 752.42 ± 0.56
323.06 K, 25004 kPa, x2 = 0.2369 | 738.42 ± 0.61
323.06 K, 25029 kPa, x2 = 0.4536 | 753.51 ± 0.57
332.91 K, 12008 kPa, x2 = 0.8114 | 740.55 ± 1.9
332.91 K, 13051 kPa, x2 = 0.8114 | 744.82 ± 0.5
332.91 K, 14018 kPa, x2 = 0.8114 | 748.57 ± 0.5
332.91 K, 15048 kPa, x2 = 0.8114 | 752.37 ± 0.5
332.91 K, 15985 kPa, x2 = 0.8114 | 755.64 ± 0.5
332.91 K, 17015 kPa, x2 = 0.8114 | 759.04 ± 0.5
332.91 K, 18008 kPa, x2 = 0.8114 | 762.27 ± 0.5
332.91 K, 19002 kPa, x2 = 0.8114 | 765.33 ± 0.5
332.91 K, 20017 kPa, x2 = 0.8114 | 768.38 ± 0.5
332.91 K, 21018 kPa, x2 = 0.8114 | 771.25 ± 0.51
332.91 K, 22044 kPa, x2 = 0.8114 | 774.13 ± 0.51
332.91 K, 23040 kPa, x2 = 0.8114 | 776.83 ± 0.51
332.91 K, 24008 kPa, x2 = 0.8114 | 779.4 ± 0.51
332.91 K, 25047 kPa, x2 = 0.8114 | 782.09 ± 0.52
332.94 K, 1997 kPa, x2 = 0.0551 | 702.61 ± 0.55
332.94 K, 3024 kPa, x2 = 0.0551 | 703.63 ± 0.55
332.94 K, 4011 kPa, x2 = 0.0551 | 704.59 ± 0.55
332.94 K, 5026 kPa, x2 = 0.2369 | 711.09 ± 0.52
332.94 K, 5040 kPa, x2 = 0.0551 | 705.62 ± 0.56
332.94 K, 6015 kPa, x2 = 0.2369 | 712.23 ± 0.52
332.94 K, 6062 kPa, x2 = 0.0551 | 706.62 ± 0.56
332.94 K, 7009 kPa, x2 = 0.0551 | 707.53 ± 0.56
332.94 K, 7015 kPa, x2 = 0.4536 | 721.74 ± 0.49
332.94 K, 7019 kPa, x2 = 0.2369 | 713.38 ± 0.53
332.94 K, 7978 kPa, x2 = 0.0551 | 708.43 ± 0.57
332.94 K, 8020 kPa, x2 = 0.2369 | 714.47 ± 0.53
332.94 K, 8025 kPa, x2 = 0.4536 | 723.26 ± 0.5
332.94 K, 9016 kPa, x2 = 0.4536 | 724.72 ± 0.5
332.94 K, 9017 kPa, x2 = 0.2369 | 715.56 ± 0.54
332.94 K, 9037 kPa, x2 = 0.0551 | 709.44 ± 0.57
332.94 K, 9992 kPa, x2 = 0.0551 | 710.31 ± 0.58
332.94 K, 10015 kPa, x2 = 0.2369 | 716.65 ± 0.54
332.94 K, 10023 kPa, x2 = 0.4536 | 726.15 ± 0.6
332.94 K, 11009 kPa, x2 = 0.2369 | 717.69 ± 0.54
332.94 K, 11014 kPa, x2 = 0.4536 | 727.55 ± 0.51
332.94 K, 11032 kPa, x2 = 0.0551 | 711.27 ± 0.58
332.94 K, 12001 kPa, x2 = 0.4536 | 728.9 ± 0.51
332.94 K, 12005 kPa, x2 = 0.9663 | 511.9 ± 1.4
332.94 K, 12013 kPa, x2 = 0.0551 | 712.13 ± 0.58
332.94 K, 12015 kPa, x2 = 0.2369 | 718.74 ± 0.55
332.94 K, 12511 kPa, x2 = 0.9663 | 544.43 ± 1.4
332.94 K, 13003 kPa, x2 = 0.9663 | 571.24 ± 1.1
332.94 K, 13015 kPa, x2 = 0.2369 | 719.76 ± 0.55
332.94 K, 13027 kPa, x2 = 0.0551 | 713.03 ± 0.59
332.94 K, 13045 kPa, x2 = 0.4536 | 730.28 ± 0.52
332.94 K, 13998 kPa, x2 = 0.4536 | 731.55 ± 0.52
332.94 K, 14011 kPa, x2 = 0.2369 | 720.77 ± 0.56
332.94 K, 14015 kPa, x2 = 0.9663 | 614.37 ± 0.98
332.94 K, 14018 kPa, x2 = 0.0551 | 713.89 ± 0.59
332.94 K, 15000 kPa, x2 = 0.4536 | 732.81 ± 0.52
332.94 K, 15003 kPa, x2 = 0.2369 | 721.75 ± 0.56
332.94 K, 15021 kPa, x2 = 0.0551 | 714.75 ± 0.6
332.94 K, 15026 kPa, x2 = 0.9663 | 648.23 ± 0.86
332.94 K, 15997 kPa, x2 = 0.0551 | 715.59 ± 0.6
332.94 K, 16019 kPa, x2 = 0.2369 | 722.73 ± 0.57
332.94 K, 16032 kPa, x2 = 0.4536 | 734.14 ± 0.53
332.94 K, 16035 kPa, x2 = 0.9663 | 674.85 ± 0.77
332.94 K, 16998 kPa, x2 = 0.0551 | 716.44 ± 0.61
332.94 K, 17015 kPa, x2 = 0.2369 | 723.7 ± 0.57
332.94 K, 17018 kPa, x2 = 0.4536 | 735.36 ± 0.53
332.94 K, 17018 kPa, x2 = 0.9663 | 695.62 ± 0.71
332.94 K, 18016 kPa, x2 = 0.9663 | 713.48 ± 0.67
332.94 K, 18021 kPa, x2 = 0.4536 | 736.57 ± 0.54
332.94 K, 18026 kPa, x2 = 0.2369 | 724.66 ± 0.58
332.94 K, 18031 kPa, x2 = 0.0551 | 717.29 ± 0.61
332.94 K, 19002 kPa, x2 = 0.9663 | 728.62 ± 0.64
332.94 K, 19004 kPa, x2 = 0.0551 | 718.07 ± 0.62
332.94 K, 19012 kPa, x2 = 0.4536 | 737.79 ± 0.54
332.94 K, 19022 kPa, x2 = 0.2369 | 725.6 ± 0.58
332.94 K, 20002 kPa, x2 = 0.0551 | 718.88 ± 0.62
332.94 K, 20002 kPa, x2 = 0.4536 | 738.93 ± 0.55
332.94 K, 20012 kPa, x2 = 0.2369 | 726.51 ± 0.58
332.94 K, 20033 kPa, x2 = 0.9663 | 742.59 ± 0.62
332.94 K, 21014 kPa, x2 = 0.0551 | 719.68 ± 0.63
332.94 K, 21022 kPa, x2 = 0.9663 | 754.63 ± 0.61
332.94 K, 21024 kPa, x2 = 0.2369 | 727.44 ± 0.59
332.94 K, 21028 kPa, x2 = 0.4536 | 740.14 ± 0.55
332.94 K, 22021 kPa, x2 = 0.2369 | 728.35 ± 0.59
332.94 K, 22021 kPa, x2 = 0.4536 | 741.29 ± 0.56
332.94 K, 22027 kPa, x2 = 0.0551 | 720.5 ± 0.63
332.94 K, 22029 kPa, x2 = 0.9663 | 765.58 ± 0.59
332.94 K, 23009 kPa, x2 = 0.4536 | 742.44 ± 0.56
332.94 K, 23010 kPa, x2 = 0.2369 | 729.26 ± 0.6
